From patent publication US20070148684A1, “IMMUNOASSAY FOR HIV PROTEASE INHIBITORS” (priority 2000, published 2007)

Test system: saquinavir antiserum
Assay: Assay specificity determination: competitive microtiter plate ELISA with saquinavir-BSA coated plate and saquinavir antiserum
Format: binding, sheep
Conditions: for dose-response of optical density at 450 nm (competition for antiserum binding): serial three-fold dilutions of drug in PBS-TWEEN, antiserum 1:12,800, 62.5 ng/ml saquinavir-BSA coat
Description: Corning micro-ELISA plates (96 wells) were used throughout. The saquinavir-BSA conjugate was diluted to 2 μg/ml in 0.1 M sodium carbonate buffer, pH 9.5. One hundred microliters of the buffer was placed in the wells of each row of the plate except the first row. The first row was filled with 200 μL of the 2 μg/ml saquinavir-BSA solution, and a twelve-tip micropipettor was used to transfer 100 μl from the first row to the second row of all columns at the same time. Mixing of contents of the second row was accomplished by re-pipetting 3 times. One hundred microliters from the second row was then transferred to the third row and mixed. This was repeated to the last row of the plate. After mixing, 100 μl was removed from the last row and discarded. The plate was placed in a humidified Zip-Loc bag and incubated for 1 hour at 37° C. After incubation, the plate was removed from the incubator and bag and emptied into a waste container. PostCoat solution was added to each well in the amount of 200 μl. This solution consisted of 1% gelatin hydrolysate, 2% sucrose, 0.15 M Tris, pH 7.4, 0.17% TWEEN 20 (ICI Americas Inc.), and 0.02% Thimerosal preservative. All reagents were from Sigma Chemicals. The plate was returned to the humidified bag and placed in the incubator for 1 hour. Five minutes before the incubation was complete, Zymed rabbit anti-sheep IgG-HRP conjugate was diluted 1:2000 in PBS-TWEEN and vortexed gently to completely mix. Upon completion of the hour incubation, the plate was washed 4 times with 300 μl of PBS-TWEEN using a BioTek Instruments, Inc. EL404 plate washer. One hundred microliters of the diluted rabbit anti-sheep IgG-HRP conjugate was then pipetted into each well, the plate re-bagged and incubated for 1 hour. At the completion of the hour, the plate was removed from the incubator and bag and washed six times on the plate washer. One hundred microliters of K-BLUE enzyme substrate (Neogen, Inc.) was then added to each well and color allowed to develop in the dark for 5 minutes. Color development was halted by the addition of 100 μl of 1 N hydrochloric acid to each well. The optical density of each well was measured at two wavelengths, 405 nm and 450 nm using a Molecular Devices, Inc. ThermoMax plate reader. […] Therefore, the OD405 measurements were used to calculate the extrapolated OD450 by the well-known method of using a linear least squares regression of readings at both wavelengths. An ELISA plate was coated with the above concentrations of saquinavir-BSA using the same conditions as set forth above. While the plates were being PostCoated, serial three-fold dilutions of saquinavir, ritonavir, indinavir, and nelfinavir were prepared in a 1 ml capacity 96-well plate. All drugs were prepared at 1 mg/ml in absolute methanol and stored at 4° C. until used. […]

Structure (SMILES): Cc1c(O)cccc1C(=O)N[C@@H](CSc1ccccc1)[C@H](O)CN1C[C@H]2CCCC[C@H]2C[C@H]1C(=O)NC(C)(C)C [nelfinavir]
- cross-reaction of the antiserum (relative to saquinavir, calculated from OD450 dose-response data): 0.4%
- dose-response of optical density at 450 nm (competition for antiserum binding): lesser response

Structure (SMILES): CC(C)(C)NC(=O)[C@@H]1C[C@@H]2CCCC[C@@H]2CN1C[C@@H](O)[C@H](Cc1ccccc1)NC(=O)[C@H](CC(N)=O)NC(=O)c1ccc2ccccc2n1 [saquinavir]
- inhibition with respect to zero drug (lowest non-zero drug concentration in Example 5 (7 dilution steps)): ~50%
- dose-response of optical density at 450 nm (competition for antiserum binding): dose-response curve
